Reference: patent US20260216250A1, “Compositions and Methods for Treating a Neurologic Disease Using Dopaminergic Neurons with Enhanced Anti-inflammatory Activity” (Kenai Therapeutics Inc., priority 2023, published 2026)

Experiments:
iPS cells = experiment: Differentiation of iPS cells into FOXA2+/LMX1+ cells or dopamine neurons; type: cell-based, human; conditions: increased concentrations, e.g. 2 μM as compared to 0.2 μM
Text: Disclosed is an in vitro method for preparing a cell composition comprising modified human cells that express both forkhead box protein A2 (FOXA2) and LIM homeobox transcription factor 1 (LMX1) (FOXA2^+/LMX1^+ cells) comprising culturing modified human pluripotent cells in the presence of the following signaling modulators: (a) a single inhibitor of Small Mothers Against Decapentaplegic (SMAD) signaling, (b) at least one activator of Sonic hedgehog (SHH) signaling, and (c) at least one activator of wingless (Wnt) signaling; and culturing said cells in the presence of said modulators for a period of time sufficient to provide a cell composition comprising said FOXA2^+/LMX1^+ cells. In some preferred embodiments, the LMX1 is LIM homeobox transcription factor 1 alpha (LMX1A). In some embodiments, the inhibitor of SMAD signaling is a BMP inhibitor such as, […]., at a concentration of from about 0.2 μM to about 4 μM, more preferably greater than 0.2 μM to about 4 μM, about 1 μM, 2 μM, 3 μM, 4 μM, or any range derivable therein), dorsomorphin, DMH-1, or noggin. […] In some embodiments, the BMP inhibitor is LDN-193189. The SMAD signaling inhibitor may be a TGFβ inhibitor (a TGFβ signaling pathway inhibitor) such as, for example, SB431542 (e.g., SB431542 present at a concentration of about 5-100, 20-60, 30-50 μM, or about 40 μM). […]

rodent GSK3β homologs = conditions: cited from earlier work
Ago = Ago (Homo sapiens, UniProt Q9UKV8); conditions: cited from earlier work
Ago, sequence (Q9UKV8 whole entry): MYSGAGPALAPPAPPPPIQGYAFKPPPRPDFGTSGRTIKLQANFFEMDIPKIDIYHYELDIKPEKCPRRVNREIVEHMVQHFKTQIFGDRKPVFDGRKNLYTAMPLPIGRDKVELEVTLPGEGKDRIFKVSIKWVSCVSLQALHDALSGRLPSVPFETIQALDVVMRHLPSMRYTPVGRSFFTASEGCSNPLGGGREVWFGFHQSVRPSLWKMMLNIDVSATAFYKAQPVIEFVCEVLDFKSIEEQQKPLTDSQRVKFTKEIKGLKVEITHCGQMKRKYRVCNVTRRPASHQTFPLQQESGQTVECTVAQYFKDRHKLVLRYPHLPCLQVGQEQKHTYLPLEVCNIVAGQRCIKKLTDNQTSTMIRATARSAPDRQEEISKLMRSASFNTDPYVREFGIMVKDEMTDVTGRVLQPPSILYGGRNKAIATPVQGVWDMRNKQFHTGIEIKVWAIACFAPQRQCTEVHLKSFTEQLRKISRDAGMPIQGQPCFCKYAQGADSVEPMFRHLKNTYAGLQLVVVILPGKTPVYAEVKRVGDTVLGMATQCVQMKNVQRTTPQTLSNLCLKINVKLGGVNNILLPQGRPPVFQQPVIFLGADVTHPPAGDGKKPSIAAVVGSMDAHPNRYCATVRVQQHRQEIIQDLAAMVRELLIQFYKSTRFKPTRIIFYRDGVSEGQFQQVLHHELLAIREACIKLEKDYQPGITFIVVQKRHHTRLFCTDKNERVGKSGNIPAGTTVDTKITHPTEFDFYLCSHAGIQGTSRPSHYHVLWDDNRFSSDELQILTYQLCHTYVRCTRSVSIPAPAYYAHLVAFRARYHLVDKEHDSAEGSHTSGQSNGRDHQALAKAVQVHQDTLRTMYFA

c1ccc2c(-c3cnn4cc(-c5ccc(N6CCNCC6)cc5)cnc34)ccnc2c1 [LDN-193189, 4-(6-(4-(piperazin-1-yl)phenyl)pyrazolo[1,5-a]pyrimidin-3-yl) quinoline]
differentiation of iPS cells into FOXA2+/LMX1+ cells or dopamine neurons (iPS cells): improved differentiation

Cc1c[nH]c(-c2cnc(NCCNc3ccc(C#N)cn3)nc2-c2ccc(Cl)cc2Cl)n1 [CHIR99021, 6-(2-(4-(2,4-dichlorophenyl)-5-(4-methyl-1H-imidazol-2-yl)pyrimidin-2-ylamino)ethylamino) nicotinonitrile]
IC50 values against rodent GSK3β homologs (rodent GSK3β homologs): nanomolar

UUAAUGCUAAUCGUGAUAGGGGUU [miR-155-5p]
Ago binding affinity of 5′ terminal UMP relative to the CMP nucleotide on the 5′ terminus of the miR-155-3p strand (Ago): approximately 20 times
